Test results reported in US12458630B2, “Combination therapy for cancer” (The Regents of the University of California, priority 2020, dated 2025).
“Also recorded” adds a separate entry of the source.

Legend:
[1] = test system: KC6141 cells; assay: Luminescence ATP detection assay; assay type: cell-based, mouse; settings: 0.5 mM glucose, 24 hrs; for cellular ATP: KC6141 cells on ECM, EIPA 10.5 μM, MBQ-167 500 nM, MRT68921 600 nM
Experimental: (§1) Extracellular Matrix (ECM) Preparation. Skin fibroblasts were seeded on 6/12/96-well plates. One day after plating, cells were switched into DMEM (with pyruvate) with 10% dialysed FBS supplemented with or without 500 μM ^3H-proline and 100 μM Vitamin C. Cells were cultured for 6 days with media renewal every 24 h. After six days, skin fibroblasts were removed by washing in 1 ml or 500 μl or 100 μl per well PBS with 0.5% (v/v) Triton X-100 and 20 mM NH4OH. ECM was washed five times with PBS before plating KC6141 cells. The following day, KC6141 cells were switched into the indicated medium for 24 or 72 hrs.
Luminescence ATP Detection Assay. Intracellular ATP level was determined with luminescence ATP detection assay system (PerkinElmer) according to manufacturer's protocol. Briefly, KC6141 cells were grown on 96-well plates coated with or without ECM in the presence of 100 μl 0.5 mM glucose medium with or without EIPA (10.5 μM), MBQ-167 (500 nM), MRT68921 (600 nM) or their combinations for 24 hrs. 50 μl mammalian cell lysis solution was added and shaken for 5 minutes. Next, 50 μl substrate solution was added and shaken for five minutes. Finally, plate was adapted in dark for 10 minutes and luminescence was measured.

[2] = test system: MIA PaCa-2 cells; assay: Cell viability assay (CCK-8); assay type: cell-based, human; settings: for cell viability in NHE1-silenced cells: NHE1 KD MIA PaCa-2 cells
Experimental: (§2) Cell viability assay. Cell viability was determined with Cell Counting Kit-8 assay (CCK-8 assay kit, Glpbio). Cells were plated in 96-well plates at a density of 3000 cells (MIA PaCa-2) or 1500 cells (KC6141) per well and incubated overnight prior to treatment. EIPA (10 μM), MRT68921 (600 nM) or erlotinib (2 μM, Sigma) were added to the wells for 72 and 96 hrs. Next, 10 μL of CCK-8 was added to each well. The optical density was read at 450 nm using a microplate reader (FilterMax F5, Molecular Devices, USA) at day 0, 1, 2, 3, and 4. For glutamine-deprivation assays, cells in 96-well plates were rinsed briefly in PBS and incubated in the 0.2 mM glutamine. Glutamine-free DMEM medium was supplemented with 0.2 mM glutamine in the presence of 10% dialysed FBS and 25 mM HEPES. For some conditions, the medium was supplemented with a final concentration of 2% BSA (Fraction V, fatty-acid-, nuclease and protease-free, Calbiochem). For all experiments, media were replaced every 24 hrs. Viable cell counts were obtained using CCK-8 assay described as above.
(§3) In some embodiments, cells were plated in 96-well plates coated with or without ECM at a density of 3000 cells (MIA PaCa-2, 1444, 1305, COLO 357/FG) or 1500 cells (KC6141) per well and incubated overnight prior to treatment. EIPA (10.5 μM), IPI549 (600 nM), MBQ-167 (500 nM), MRT68921 (600 nM) or erlotinib (2 μM, Sigma), ML385 (10 μM, Sigma), HCQ (10 μM or 80 μM) or their combinations were added to the wells for 24, 72 or 96 hrs. Next, 10 μL of CCK-8 was added to each well. The optical density was read at 450 nm using a microplate reader (FilterMax F5, Molecular Devices, USA) at day 0, 1, 2, 3, and 4. For glutamine-deprivation assays, cells in 96-well plates were rinsed briefly in PBS and incubated in the 0.2 mM glutamine. Glutamine-free DMEM medium was supplemented with 0.2 mM glutamine in the presence of 10% dialyzed FBS and 25 mM HEPES. For glucose-deprivation assays, cells in 96-well plates were rinsed briefly in PBS and incubated in the 0.5 mM glucose. Glucose-free DMEM medium was supplemented with 0.5 mM glucose in the presence of 10% dialyzed FBS and 25 mM HEPES. For some conditions, the medium was supplemented with a final concentration of 2% BSA (Fraction V, fatty-acid-, nuclease and protease-free, Calbiochem). For all experiments, media were replaced every 24 hrs. Viable cell counts were obtained using CCK-8 assay described as above.

[3] = test system: KC6141 mouse PDAC cells; assay: Cell viability assay (CCK-8); assay type: cell-based; settings: 3 days; for cell viability vs vehicle: WT, Ikkα-KD, Nhe1-KD, Ikkα-KD;Nhe1-KD KC6141 cells
Experimental: as §1, §2, §3

[4] = test system: KC6141 cells; assay: BrdU incorporation (immunofluorescence); assay type: cell-based, mouse; settings: 0.5 mM glucose, 24 hrs; for BrdU incorporation (cell proliferation): KC6141 cells on ECM
[5] = test system: KC6141 cells; assay: NADPH/NADP measurement; assay type: cell-based, mouse; settings: 0.5 mM glucose, 24 hrs; for NADPH to NADP ratio: KC6141 cells on ECM
Experimental: Extracellular Matrix (ECM) Preparation. Skin fibroblasts were seeded on 6/12/96-well plates. One day after plating, cells were switched into DMEM (with pyruvate) with 10% dialysed FBS supplemented with or without 500 μM ^3H-proline and 100 μM Vitamin C. Cells were cultured for 6 days with media renewal every 24 h. After six days, skin fibroblasts were removed by washing in 1 ml or 500 μl or 100 μl per well PBS with 0.5% (v/v) Triton X-100 and 20 mM NH4OH. ECM was washed five times with PBS before plating KC6141 cells. The following day, KC6141 cells were switched into the indicated medium for 24 or 72 hrs. NADPH/NADP Measurement. NADPH and NADP measurement was performed using NADP/NADPH-Glo™ Assays (Promega #G9081) according to manufacturer's protocol. Briefly, KC6141 cells were grown on 96-well plates coated with ECM and treated as above. Then medium was removed and replaced with 50 μl of PBS and 50 μl of base solution with 1% DTAB. The plate was briefly mixed to ensure homogeneity and cell lysis. 50 μl of each sample was removed to an empty well for acid treatment. 25 μl per well of 0.4N HCl was added into these samples. All samples were incubated for 15 minutes at 60° C. and then equilibrated for 10 minutes at room temperature. 25 μl of 0.5M Trizma® base was added into each well of acid-treated cells to neutralize the acid. 50 μl of HCl/Trizma® solution was added to each well containing base-treated samples. Then 100 μl of NADP/NADPH-Glo™ Detection Reagent was added into each well and incubated for 30 minutes at room temperature. Luminescence was recorded using a luminometer.

Row | SMILES | cellular ATP [1] | cellular ATP in p62/NRF2 ablated cells ([1]; p62 KD or Nrf2 KD KC6141 cells on ECM) | sensitivity to single agent (cell viability) ([2]; ATG7^Δ or IKKα-deficient MIA PaCa-2 cells, 3 days) | sensitivity of IKKα- or ATG7-deficient cells to EIPA (CCK-8) ([2]; IKKα^Δ / ATG7^Δ vs WT MIA PaCa-2 cells (TP53 mutated), complete medium) | cell viability in NHE1-silenced cells ([2]; 3 days) | proliferation restored by albumin supplementation ([2]; WT and IKKα KO MIA PaCa-2 cells, 0.2 mM glutamine with albumin, 3 days) | cell viability (total viable cells relative to day 0) ([2]; WT and IKKα^Δ MIA PaCa-2 cells, complete medium, EIPA 10.5 μM) | enhanced proliferation caused by loss of IKKα or ATG7 ([2]; WT, IKKα KO, ATG7 KO MIA PaCa-2 cells, complete medium, EIPA 10 μM, days 0-4) | sensitivity to single agent (cell viability) ([3]; IKKα-deficient KC6141 cells) | cell viability enhanced by extracellular matrix (ECM) ([3]; WT and IKKα KD 6141 cells on ECM, 0.5 mM glucose, EIPA, IPI549 600 nM, MBQ-167 500 nM) | cell viability vs vehicle [3] | BrdU incorporation (cell proliferation) [4] | BrdU incorporation in NRF2 ablated cells ([4]; Nrf2 KD KC6141 cells on ECM) | NADPH to NADP ratio [5] | NADPH to NADP ratio in NRF2 ablated cells ([5]; Nrf2 KD KC6141 cells on ECM) | cell growth, single agent ([3]; IKKα KD KC6141 cells, erlotinib 2 μM, MRT68921 600 nM) | BrdU incorporation (cell proliferation) ([4]; listed as MRT)
1 | CCN(c1nc(N)c(C(=O)N=C(N)N)nc1Cl)C(C)C [EIPA, 5-(N-ethyl-N-isopropyl) amiloride] | reduced | ineffective | very sensitive | much more sensitive; also recorded: highly sensitive | EIPA-insensitive | completely abrogated | suppression of cell viability | abrogated | very sensitive | suppressed | suppression of cell viability | reduced; also recorded: suppressed cell proliferation in all conditions | ineffective | reduced | ineffective |  | 
2 | CN1CCc2cc(Nc3ncc(C4CC4)c(NCCCNC(=O)C4CCC4)n3)ccc2C1 [MRT68921] | further elevated |  |  |  | severely compromised cell viability |  |  |  |  |  | suppression of cell viability | further elevated |  | further elevated |  | limited | enhanced cell proliferation in WT, but not in Nrf2 KD KC6141
